From PMC10331583, “Control of fibrosis with enhanced safety via asymmetric inhibition of prolyl‐tRNA synthetase 1” (EMBO Molecular Medicine, 2023)
“And” between values parts separate entries of the source, which are not always exact repeats. Equal entries are not always repeated. Where two headings read alike, the source gives them in different places.

How the values were obtained:
C57BL/6 mice = test: Bleomycin‐induced lung fibrosis, therapeutic model 1 (compounds from a week after bleomycin); assay type: in vivo; conditions: for BALF total cell count, average / BALF total cell count, single animal / Collagen contents, average / Collagen contents, single animal / Fibrotic area, average / Fibrotic area, single animal / SpO2, average / SpO2, single animal: BLM +
Procedure: To examine therapeutic efficacy of DWN12088, all experiments were conducted following the international guidelines on the ethical use of experimental animals and approved by the Institutional Animal Care and Use Committee of Daewoong Pharmaceutical (IACUC‐21‐014). C57BL/6 mice (7–8‐week‐old, male, obtained from Orient Bio) were anesthetized with Zoletil and injected intratracheally with 100 μl bleomycin (2 units/kg) (Merck, B8416) to induce lung fibrosis. A group of disease‐free mice (“untreated”) were injected with PBS instead of bleomycin. After a week, mice treated with bleomycin were randomized to (i) vehicle (saline), (ii) HF 0.05 mg/kg, (iii) HF 0.1 mg/kg, and (iv) DWN12088 10 mg/kg groups (n = 5 for each group) according to their body weight. The drugs were orally administered once daily for 2 weeks, and then the outcome was analyzed. For the experiments testing the effect of the compounds 2 weeks after bleomycin challenge, the experiment was approved by IACUC of Daewoong Pharmaceutical (IACUC‐22‐009). The experimental procedures were performed following the methods described previously, with the exception that the compounds were administered 2 weeks after bleomycin challenge. The experiments were conducted as non‐blind tests.
Mice were anesthetized with Zoletil for 10 min, and a portable mouse pulse oximeter (Veterinary Pulse Oximeter, Berry Electronic) was placed on each mouse's body. The measurements were continued to allow the recording of 3 min of a stable signal.
The collagen contents of lung tissues were measured using Sircol™ soluble collagen assay (Biocolor Ltd., S1000) following the manufacturer's instructions. Briefly, the right lung lobes were homogenized, and collagen was solubilized in 0.5 M acetic acid. Tissue extracts were incubated with Sirius red dye, and the absorbance was determined at 540 nm using a spectrophotometer. The amount of collagen was expressed relative to the wet weight of the tissues.
The lung tissues were fixed in paraformaldehyde and embedded in paraffin. The paraffin‐embedded blocks were sectioned at 4 μm and then mounted onto glass slides. After deparaffinization and rehydration, the slides were fixed with Bouin's solution (Sigma Aldrich, HT10132‐1L) for 1 h. Then, the slides were incubated with hematoxylin (Sigma Aldrich, MHS16‐500ML), Biebrich Scarlet (Sigma Aldrich, B‐6008) and acid fuchsin (Sigma Aldrich, A‐3908), phosphomolybdic (DAEJUNG, 6531‐4105) and phosphotungstic acid (DAEJUNG, 6539‐4105), aniline blue (DAEJUNG, 1087‐4125), and then 1% (v/v) acetic acid (DUKSAN, UN2789). After dehydration, the slides were mounted onto cover slips and scanned using slide scanner (3D HISTECH, Pannoramic MIDI). Fibrotic area of the images was quantified by using Image J plugin, color deconvolution 2.

His‐PARS1 = biological target: T1, His‐PARS1 (Homo sapiens, UniProt P07814); test: Surface plasmon resonance (SPR); assay type: binding; conditions: read-out: KD
T1 construct: His‐PARS1 (1001–1,512 aa); made in house; host or cells: Escherichia coli
T1 sequence (P07814 1001-1512 limits assumed): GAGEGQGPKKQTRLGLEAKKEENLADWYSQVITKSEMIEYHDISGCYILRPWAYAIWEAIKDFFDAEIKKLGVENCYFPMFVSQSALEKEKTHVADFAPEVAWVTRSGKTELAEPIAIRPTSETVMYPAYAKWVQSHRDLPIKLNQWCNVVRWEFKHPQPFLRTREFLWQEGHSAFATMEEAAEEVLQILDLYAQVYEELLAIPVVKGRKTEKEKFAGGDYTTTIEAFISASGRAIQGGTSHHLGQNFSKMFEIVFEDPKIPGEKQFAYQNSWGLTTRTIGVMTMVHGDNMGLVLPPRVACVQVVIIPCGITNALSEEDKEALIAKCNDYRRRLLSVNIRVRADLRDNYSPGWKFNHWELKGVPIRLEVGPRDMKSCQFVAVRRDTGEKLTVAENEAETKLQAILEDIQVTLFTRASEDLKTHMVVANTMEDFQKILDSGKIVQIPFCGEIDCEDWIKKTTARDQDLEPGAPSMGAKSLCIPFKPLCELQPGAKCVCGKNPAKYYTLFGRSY

PARS1 WT = biological target: T2, PARS1 WT (Homo sapiens, UniProt P07814); test: Microscale thermophoresis (MST), PARS1 WT; assay type: binding; conditions: for Fraction bound: single replicates
T2 construct: His‐PARS1 (1001–1,512 aa); made in house; host or cells: Escherichia coli
T2 sequence (P07814 1001-1512 limits assumed): T1 sequence (P07814 1001-1512 limits assumed)

SMILES: O=C(CC1NCCCC1O)Cn1cnc2cc(Br)c(Cl)cc2c1=O (centres unmarked) [HF, Halofuginone, reference compound]
- SpO2 (C57BL/6 mice; 0.05 mg/kg oral once a day, 2 weeks (Figs 1E and EV4G)): did not show an improvement in SpO2
- BALF total cell count, average (C57BL/6 mice; 0.05 mg/kg): 10.46 x105 cells
- BALF total cell count, single animal (C57BL/6 mice; 0.05 mg/kg): 10 x105 cells and 12 x105 cells and 9.3 x105 cells and 11 x105 cells
- Collagen contents, average (C57BL/6 mice; 0.05 mg/kg): 308.0 μg/right lung
- Collagen contents, single animal (C57BL/6 mice; 0.05 mg/kg): 314 μg/right lung and 298 μg/right lung and 320 μg/right lung and 264 μg/right lung and 344 μg/right lung
- Fibrotic area, average (C57BL/6 mice; 0.05 mg/kg): 275.3 % of control
- Fibrotic area, single animal (C57BL/6 mice; 0.05 mg/kg): 303.9 % of control and 169.0 % of control and 380.1 % of control and 194.5 % of control and 329.1 % of control
- SpO2, average (C57BL/6 mice; 0.05 mg/kg): 71.2%
- SpO2, single animal (C57BL/6 mice; 0.05 mg/kg): 72% and 64% and 66% and 76% and 78%
- BALF total cell count, average (C57BL/6 mice; 0.1 mg/kg): 7.38 x105 cells
- BALF total cell count, single animal (C57BL/6 mice; 0.1 mg/kg): 7.2 x105 cells and 9 x105 cells and 5.1 x105 cells and 7.4 x105 cells and 8.2 x105 cells
- Collagen contents, average (C57BL/6 mice; 0.1 mg/kg): 231.8 μg/right lung
- Collagen contents, single animal (C57BL/6 mice; 0.1 mg/kg): 254 μg/right lung and 195 μg/right lung and 275 μg/right lung and 201 μg/right lung and 234 μg/right lung
- Fibrotic area, average (C57BL/6 mice; 0.1 mg/kg): 171.2 % of control
- Fibrotic area, single animal (C57BL/6 mice; 0.1 mg/kg): 180.4 % of control and 138.3 % of control and 115.6 % of control and 249.0 % of control and 172.5 % of control
- SpO2, average (C57BL/6 mice; 0.1 mg/kg): 80.0%
- SpO2, single animal (C57BL/6 mice; 0.1 mg/kg): 78% and 81% and 85% and 82% and 74%
- collagen deposition, Masson's trichrome staining (C57BL/6 mice; lung tissue (Fig 1H and I)): decreased collagen deposition in the interstitial spaces
- fibrotic properties (C57BL/6 mice; model 1, drug administration from day 7): significantly reduced fibrotic properties
- Kd (His‐PARS1; + ATP (1 mM)): 0.178 µM
- Kd (His‐PARS1; - ATP): 47.9 µM
- Fraction bound, average (PARS1 WT; Dose 3.0518 nM): -0.0712
- Fraction bound (PARS1 WT; Dose 3.0518 nM): -0.0993 and -0.0066 and -0.1077
- Fraction bound, average (PARS1 WT; Dose 6.1035 nM): -0.0015
- Fraction bound (PARS1 WT; Dose 6.1035 nM): 0.0287 and -0.0242 and -0.0091
- Fraction bound, average (PARS1 WT; Dose 12.207 nM): 0.0765
- Fraction bound (PARS1 WT; Dose 12.207 nM): 0.1266 and 0.0543 and 0.0485
- Fraction bound, average (PARS1 WT; Dose 24.4141 nM): 0.1050
- Fraction bound (PARS1 WT; Dose 24.4141 nM): 0.1952 and 0.1143 and 0.0054
- Fraction bound, average (PARS1 WT; Dose 48.8281 nM): 0.1434
- Fraction bound (PARS1 WT; Dose 48.8281 nM): 0.1825 and 0.1031 and 0.1448
- Fraction bound, average (PARS1 WT; Dose 97.6563 nM): 0.2466
- Fraction bound (PARS1 WT; Dose 97.6563 nM): 0.2751 and 0.2161 and 0.2485
- Fraction bound, average (PARS1 WT; Dose 195.312 nM): 0.5229
- Fraction bound (PARS1 WT; Dose 195.312 nM): 0.5425 and 0.5488 and 0.4774
- Fraction bound, average (PARS1 WT; Dose 390.625 nM): 0.7387
- Fraction bound (PARS1 WT; Dose 390.625 nM): 0.7958 and 0.7241 and 0.6962
- Fraction bound, average (PARS1 WT; Dose 781.25 nM): 0.9030
- Fraction bound (PARS1 WT; Dose 781.25 nM): 0.8890 and 0.8991 and 0.9209
- Fraction bound, average (PARS1 WT; Dose 1562.5 nM): 0.9612
- Fraction bound (PARS1 WT; Dose 1562.5 nM): 0.9380 and 1.0072 and 0.9382
- Fraction bound, average (PARS1 WT; Dose 3125 nM): 0.9287
- Fraction bound (PARS1 WT; Dose 3125 nM): 0.9278 and 0.9164 and 0.9420
- Fraction bound, average (PARS1 WT; Dose 6250 nM): 0.9609
- Fraction bound (PARS1 WT; Dose 6250 nM): 0.9251 and 0.9572 and 1.0004
- Fraction bound, average (PARS1 WT; Dose 12500 nM): 0.9979
- Fraction bound (PARS1 WT; Dose 12500 nM): 0.9525 and 1.0119 and 1.0291
- Fraction bound, average (PARS1 WT; Dose 25000 nM): 1.0497
- Fraction bound (PARS1 WT; Dose 25000 nM): 1.0026 and 1.0240 and 1.1224
- Fraction bound, average (PARS1 WT; Dose 50000 nM): 0.9548
- Fraction bound (PARS1 WT; Dose 50000 nM): 0.8756 and 0.9971 and 0.9917
- Fraction bound, average (PARS1 WT; Dose 100000 nM): 1.0743
- Fraction bound (PARS1 WT; Dose 100000 nM): 1.0331 and 1.0480 and 1.1418
